Data published in patent publication US5756501A, “Saturated and unsaturated pyridazino[4,5-B] indolizines useful as antidementia agents” (American Home Products Corporation, priority 1996, dated 1998).
Substitutions are numbered along the chain they refer to.

What was measured:
Human m1 receptors = Human m1 receptors (Homo sapiens, UniProt P11229); test: biochemical; format: binding
muscarinic M1 receptors [1] = molecular target: T1, muscarinic M1 receptors (Rattus norvegicus, UniProt P08482); test: Tritiated pirenzepine ([^3 H]PZ) binding inhibition, rat brain cortex (M1 binding); conditions: [^3 H]PZ 0.5 nM, read-out: M1 Binding % Inhib. of [^3 H] Pz @ 10 μM
T1 construct: The cortex of rat brains obtained from male Sprague-Dawley rats; from tissue; host or cells: rat brain cortex homogenate (male Sprague-Dawley)
T1 sequence (P08482 1-460): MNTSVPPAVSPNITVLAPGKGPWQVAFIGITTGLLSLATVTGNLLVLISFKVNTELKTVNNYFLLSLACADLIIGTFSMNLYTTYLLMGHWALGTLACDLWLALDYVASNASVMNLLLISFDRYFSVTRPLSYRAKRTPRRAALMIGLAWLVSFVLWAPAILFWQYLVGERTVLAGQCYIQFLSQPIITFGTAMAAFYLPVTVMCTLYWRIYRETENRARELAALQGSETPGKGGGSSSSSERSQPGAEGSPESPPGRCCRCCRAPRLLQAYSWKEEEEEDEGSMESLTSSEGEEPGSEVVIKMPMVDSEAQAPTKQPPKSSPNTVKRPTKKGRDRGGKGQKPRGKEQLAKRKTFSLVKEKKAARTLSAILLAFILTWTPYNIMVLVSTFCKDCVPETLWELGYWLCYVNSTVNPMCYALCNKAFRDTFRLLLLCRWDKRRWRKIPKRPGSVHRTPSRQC
Method: The cortex of rat brains obtained from male Sprague-Dawley rats (300 g) are homogenized using a hand-held teflon-coated pestle in 20 volumes of 0.32M sucrose. After centrifugation (747×g for 10 min at 4° C.), the resultant supernatant is decanted and recentrifuged (18677×g for 20 min at 4° C.). The resultant pellet is resuspended in the original volume of 0.32M sucrose and frozen. After thawing, the suspension is diluted (1:1 v/v) with 10 mM Na2 HPO4 /KH2 PO4 buffer (pH=7.4). [^3 H]PZ (0.5 nM, 0.04 μCi) is then incubated in multiple tubes with a 100 μl sample of the tissue suspension and 10 μl of a test compound solution (10 μM in water or ethanol) or vehicle (for control) in a sufficient quantity of the above phosphate buffer to give a total volume of 1 ml. One half of the tubes also contain 2 μM atropine sulfate which binds non-specifically with muscarinic receptors and provides for correcting the data for binding with other muscarinic receptors which may be present. After 60 minutes of incubation as 25° C. in the dark, the binding is terminated by vacuum filtration onto Whatman GF/B filters (pre-soaded for 60 minutes in 0.1% (w/v) polyethylenimine to reduce non-specific binding). After three washes with the phosphate buffer (4° C., 3 ml/wash) the vacuum is allowed to continue for two minutes before the filter-trapped radioactivity is assayed by liquid scintillation spectroscopy. Specific [^3 H]PZ binding is defined as total binding minus binding in the presence of 2 μM atropine sulfate. Data are pesented in Table I below as the percent inhibition ([control-test]/control×100%) of [^3 H]PZ binding by the test or reference compound.

[2] = molecular target: T2, M1 acetylcholine receptors (Homo sapiens, UniProt P11229); test: cell-based; conditions: CHO, 1 h; read-out: PI Turnover % above baseline
T2 sequence (P11229 1-460): T1 sequence (P08482 1-460) with V5A, S254T, S309P, K320R, G337A, V413I

muscarinic M2 receptors [3] = molecular target: muscarinic M2 receptors (Rattus norvegicus, UniProt P10980); test: biochemical; format: binding
Sequence of muscarinic M2 receptors (Rattus norvegicus, UniProt P10980) (P10980 whole entry): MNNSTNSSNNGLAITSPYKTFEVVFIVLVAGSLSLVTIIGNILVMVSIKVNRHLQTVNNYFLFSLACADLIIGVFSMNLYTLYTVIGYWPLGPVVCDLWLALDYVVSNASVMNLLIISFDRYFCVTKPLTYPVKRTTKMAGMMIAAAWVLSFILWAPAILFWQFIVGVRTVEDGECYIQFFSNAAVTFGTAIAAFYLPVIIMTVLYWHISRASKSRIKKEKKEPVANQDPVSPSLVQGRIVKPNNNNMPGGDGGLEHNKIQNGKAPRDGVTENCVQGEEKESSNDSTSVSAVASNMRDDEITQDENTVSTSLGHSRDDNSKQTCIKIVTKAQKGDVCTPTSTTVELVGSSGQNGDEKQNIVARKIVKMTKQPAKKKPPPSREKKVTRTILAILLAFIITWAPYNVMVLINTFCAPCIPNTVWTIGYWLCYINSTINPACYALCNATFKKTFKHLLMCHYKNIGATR

muscarinic M2 receptors [4] = test: biochemical; format: binding, rat; conditions: selectivity M1 versus M2
muscarinic M1 receptors [5] = molecular target: T1, muscarinic M1 receptors; test: Tritiated pirenzepine ([^3 H]PZ) binding inhibition, rat brain cortex (M1 binding)
[6] = in vivo; cited from earlier work
Alzheimer's Disease = conditions: cited from earlier work; for improvement in memory: patients with mild to moderate Alzheimer's Disease
m1 receptors = conditions: cited from earlier work
[7] = quaternary ammonium compounds; cited from earlier work

Sequence of Human m1 receptors (P11229 whole entry): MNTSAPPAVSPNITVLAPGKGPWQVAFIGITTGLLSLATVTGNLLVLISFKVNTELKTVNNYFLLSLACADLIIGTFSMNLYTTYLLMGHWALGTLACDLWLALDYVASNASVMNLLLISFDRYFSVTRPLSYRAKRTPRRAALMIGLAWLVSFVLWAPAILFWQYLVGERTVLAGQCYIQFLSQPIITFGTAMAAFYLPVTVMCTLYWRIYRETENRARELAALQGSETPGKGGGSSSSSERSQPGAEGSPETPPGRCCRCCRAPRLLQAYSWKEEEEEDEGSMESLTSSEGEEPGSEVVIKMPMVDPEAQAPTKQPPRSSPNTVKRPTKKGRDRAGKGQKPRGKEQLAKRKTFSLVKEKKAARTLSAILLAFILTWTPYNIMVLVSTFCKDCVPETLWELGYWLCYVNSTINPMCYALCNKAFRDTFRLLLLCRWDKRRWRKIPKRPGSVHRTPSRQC

Cc1nnc(NCCCN2CC3CCC(CC3)C2)c2cc3n(c12)CCCC3 [Example 10, N-[3-(3-Azabicyclo[3.2.2]non-3-yl)propyl]-6,7,8,9-tetrahydro-4-(methyl)pyridazino[4,5-b]indolizin-1-amine]
Ki (Human m1 receptors): 9 nM

FC(F)(F)c1nnc(NCCCN2CC3CCC(CC3)C2)c2cc3ccccn3c12 [Example 2]
Ki (Human m1 receptors): 140 nM

CCN(CC)CCCNc1nnc(COC)c2c1cc1ccccn12 [Example 3, N,N-Diethyl-N'-[4-(methoxymethyl)pyridazino[4,5-b]indolizin-1-yl]-1.3-propanediamine]
inhibition at 10 µM (muscarinic M1 receptors [1]): 98.4%

Cc1nnc(NCCCCN2CC3CCC(CC3)C2)c2cc3n(c12)CCCC3 [Example 11, N-[4-(3-Azabicyclo[3.2.2]non-3-yl)butyl]-6,7,8,9-tetrahydro-4-methylpyridazino[4,5-b]indolizin-1-amine]
Emax [2]: 102% | Ki (muscarinic M2 receptors [3]): 13.4 nM | M2/M1 Ki ratio (muscarinic M2 receptors [4]): 10 | inhibition at 1 µM (muscarinic M1 receptors [5]; 1 μM, rat cortex, [^3 H]PZ 0.5 nM, read-out: M1 Binding % Inhib. of [^3 H] Pz @ 1 μM): 101% | Ki (muscarinic M1 receptors [5]; Table II, rat brain M1): 1.34 nM

COC(=O)C1=CCCN(C)C1 [arecoline]
half-life [6]: short half-life | improvement in memory (Alzheimer's Disease): memory improvement in patients with mild to moderate Alzheimer's Disease

CCN(CC)CCCNc1nnc(COC)c2c1cc1n2CCCC1 [Example 13, N,N-Diethyl-N'-[6,7,8,9-tetrahydro-4-(methoxymethyl)-pyridazino[4,5-b]indolizin-1-yl]-1.3-propanediamine]
inhibition at 10 µM (muscarinic M1 receptors [1]): 109%

COCc1nnc(NCCCCN2CC3CCC(CC3)C2)c2cc3n(c12)CCCC3 [Example 14, N-[4-(3-Azabicyclo[3.2.2]non-3-yl)butyl]-6,7,8,9-tetrahydro-4-(methoxymethyl)-pyridazino[4,5-b]indolizin-1-amine]
Emax [2]: 73% | inhibition at 10 µM (muscarinic M1 receptors [1]): 101%

COCc1nnc(NCCCCN2CC3CCC(CC3)C2)c2cc3ccccn3c12 [Example 5, N-[4-(3-Azabicyclo[3.2.2]non-3-yl)butyl]-4-(methoxymethyl)pyridazino[4.5-b]indolizin-1-amine]
inhibition at 10 µM (muscarinic M1 receptors [1]): 100%

Cc1nnc(NCCN2CC3CCC(CC3)C2)c2cc3n(c12)CCCC3 [Example 9]
Ki (Human m1 receptors): 80 nM

C[C@@H]1O[C@H](C[N+](C)(C)C)C[C@H]1O [muscarine]
activation of m1 receptors (m1 receptors): able to fully activate m1 receptors | ability to cross the blood brain barrier [7]: not able to cross the blood brain barrier

C[N+](C)(C)CCOC(N)=O [carbachol]
ability to cross the blood brain barrier [7]: not able to cross the blood brain barrier

CCN(CC)CCCNc1nnc(C)c2c1cc1n2CCCC1 [Example 8, N,N-Diethyl-N'-[6,7,8,9-tetrahydro-4-(methyl)-pyridazino[4,5-b]indolizin-1-yl]-1.3-propanediamine]
inhibition at 10 µM (muscarinic M1 receptors [1]): 98%

c1ccc(COCc2nnc(NCCN3CCN(c4ncccn4)CC3)c3cc4ccccn4c23)cc1 [Example 6, 4-[(Phenylmethoxy)methyl]-N-[2-[4-(2-pyrimidinyl)-1-piperazinyl]ethyl]pyridazino[4,5-b]indolizin-1-amine]
inhibition at 10 µM (muscarinic M1 receptors [1]): 98.3%

FC(F)(F)c1nnc(NCCCCN2CC3CCC(CC3)C2)c2cc3ccccn3c12 [Example 1, N-[4-(3-Azabicyclo[3.2.2]non-3-yl)butyl]-4-(trifluoromethyl)pyridazino[4,5b]indolizine-1-amine]
Ki (Human m1 receptors): 240 nM

c1ccc(COCc2nnc(NCCCCN3CCOCC3)c3cc4n(c23)CCCC4)cc1 [Example 15, 6,7,8,9,-Tetrahydro-N-[4-(4-morpholinyl)butyl]-4-[(phenylmethoxy)methyl]-pyradazino[4,5-b]indolizin-1-amine]
inhibition at 10 µM (muscarinic M1 receptors [1]): 100%

FC(F)(F)c1nnc(NCCCCN2CC3CCC(CC3)C2)c2cc3n(c12)CCCC3 [Example 12, N-[4-(3-Azabicyclo[3.2.2]non-3-yl)butyl]-6,7,8,9-tetrahydro-4-(trifluoromethyl)-pyridazino[4,5-b]indolizin-1-amine]
Ki (Human m1 receptors): 206 nM

COCc1nnc(NCCCN2CC3CCC(CC3)C2)c2cc3ccccn3c12 [Example 4, N-[3-(3-Azabicyclo[3.2.2]non-3-yl)propyl]-4-(methoxymethyl)pyridazino[4.5-b]indolizin-1-amine]
inhibition at 10 µM (muscarinic M1 receptors [1]): 100%

Nc1c2c(nc3ccccc13)CCCC2 [tacrine]
adverse side effects (Alzheimer's Disease; higher doses): adverse side effects especially at the higher doses | improvement in memory (Alzheimer's Disease): improvement in memory can be shown in patients with mild to moderate Alzheimer's Disease

CCN(CC)CCCNCc1nnc(NCCCN(CC)CC)c2cc3ccccn3c12 [Example 7, N,N-Diethyl-N'-[4-[[[3-(diethylamino)propyl]amino]methyl]-pyridazino[4.5-b]indolizin-1-yl]-1,3-propanediamine]
inhibition at 10 µM (muscarinic M1 receptors [1]): 99.3%
